The values below come from paper PMC7864049, “Co-crystal structures of HIV TAR RNA bound to lab-evolved proteins show key roles for arginine relevant to the design of cyclic peptide TAR inhibitors” (The Journal of Biological Chemistry, 2021).

Entries after “also recorded” stand apart in the source; their conditions may differ. Read-outs that look alike come from different tables or passages of the source.

In one assay the target is HIV-1 TAR RNA (27-mer). It counts as binding.
For assay [1], the system named is Tat ARM binding to HIV-1 TAR RNA.
Assay [2] shares this test system. This is another data set of the same source.
The next assay deals with HIV TAR RNA. To be noted: cited from earlier work. From the text:
(§1) The precise role of arginine in Tat-mediated RNA recognition came into focus only recently based on the high-resolution NMR analysis of an HIV Tat-ARM in complex with human 7SK RNA and HIV TAR RNA ([19]). When bound to host 7SK, Tat adopts a bent conformation wherein a cluster of three arginines specifically recognizes the Hoogsteen edges of guanine nucleobases. Conversely, the Tat-ARM adopts a more linear conformation that uses two arginines to recognize the Hoogsteen edges of TAR nucleobases. Remarkably, these different modes of base recognition use distinctive arginines from the same Tat pe ...

A further assay relates to human 7SK RNA. The following applies: cited from earlier work.
Text: as §1

Take “Ac-GISYGRKKRRQRRRAHQ-NH2 [Tat ARM, reference compound]”: at HIV-1 TAR RNA (27-mer), the Kd (commonly the free concentration of one partner at which half of the binding sites on the other are occupied at equilibrium, for simple one-to-one binding) was 166 ± 21 nM; the “ΔG°” value was -9.2 ± 0.1 kcal/mol; the “ΔH°” value is listed as −4.5 ± 0.6 kca/mol; the “−TΔS°” value was -4.8 ± 0.7 kcal/mol. Also, at HIV-1 TAR RNA (27-mer) (20 °C), binding was put at a Kd of 135 ± 31 nM. Besides, the “heats of binding of Tat ARM” value in assay [1] is “no significant heats of binding; also recorded: no appreciable heats of binding”. In addition, the “Tat binding mode in presence of TB-LP-6.9” value in assay [2] is “non- identical two- site binding”. In addition, the “affinity” value with HIV TAR RNA is “nanomolar affinity”. Further, the “affinity” value with human 7SK RNA is reported as “nanomolar affinity”.
